Patent publication US12274761B2, “Compositions and methods to detect GLUA1 in brain and to identify the presence of GLUA1-mediated PTSD” (Neurovation Labs, Inc., priority 2016, dated 2025)
Entries after “also recorded” stand apart in the source; their conditions may differ.

Tests used:
[1] = tested on: Stress-Enhanced Fear Learning (SEFL); assay: Stress-Enhanced Fear Learning (SEFL), a rodent model of PTSD: freezing in Context B; type: in vivo, rats
Excerpt: FIG. 1A illustrates an experimental design for Stress-Enhanced Fear Learning (SEFL), a rodent model of PTSD. FIG. 2A illustrates an abbreviated SEFL experimental design. […] FIG. 3A illustrates a SEFL experimental design. […] FIG. 2C depicts representative Western blot images of GluA1 and GAPDH from the BLA of stressed/MSO and stressed/ASO rats. FIG. 2D depicts mean GluA1: GAPDH optical density ratios (±SEM) from the BLA of stressed/MSO and stressed/ASO rats. […] FIG. 2E depicts mean (±SEM) percent freezing in Context B on Day 3. […] FIG. 3C depicts mean freezing (±SEM) in Context B on Day 3.

[2] = tested on: GluA1 protein in the basolateral amygdala (BLA); assay: Western blot of GluA1 protein in the BLA after SEFL trauma; type: in vivo; details: metyrapone given before the trauma, measured three weeks after the trauma, stressed rats
Procedure: FIG. 1A illustrates an experimental design for Stress-Enhanced Fear Learning (SEFL), a rodent model of PTSD.
(§1) FIGS. 1B-D depict representative Western blot images and graphs of relative optical density ratios (±standard error of the mean (SEM)) of GluA1, GluA2, and GluN1, respectively, and a glyceraldehyde 3-phosphate dehydrogenase (GAPDH) control. […] Glutamate receptor protein changes were measured three weeks after the initial trauma via Western blotting. While the GluA2 subunit of the AMPAR and the GluN1 subunit of the N-methyl-D-aspartate receptor (NMDAR) remained unchanged after trauma, GluA1 increased substantially.
(§2) FIG. 1A illustrates an experimental design using SEFL (7, 8). Protein levels were measured using Western blot, an analytical technique to detect specific proteins in tissue samples.
FIG. 1B depicts representative Western blot images of GluA1 and a control, GAPDH, from the BLA of stressed and unstressed rats, measured three weeks after the trauma.
Because GluA1 increases are observed weeks after the trauma, post-trauma GluA1 ASO infusions directly into the BLA prevented sensitized fear responses usually observed in SEFL (FIGS. 2A-E) (5). […] FIG. 2C depicts representative Western blot images of GluA1 and GAPDH from the BLA of stressed/MSO and stressed/ASO rats. […]

[3] = tested on: GluA2 subunit of the AMPAR; assay: Western blot of GluA2 protein in the BLA after SEFL trauma; type: in vivo; details: measured three weeks after the trauma; stressed and unstressed rats
Procedure: as §1, §2
FIG. 1C depicts representative Western blot images of GluA2 and GAPDH from the BLA of stressed and unstressed rats, measured three weeks after the trauma.

[4] = tested on: GluN1 subunit of the N-methyl-D-aspartate receptor (NMDAR); assay: Western blot of GluN1 protein in the BLA after SEFL trauma; type: in vivo; details: measured three weeks after the trauma; stressed and unstressed rats
Procedure: as §1, §2
FIG. 1D depicts representative Western blot images of GluN1 and GAPDH from the BLA of stressed and unstressed rats, measured three weeks after the trauma.

Row | Structure (SMILES) | percent freezing in Context B on Day 3 (sensitized fear, SEFL) ([1]; intra-BLA infusion after the 15-shock stressor (post-trauma), compared with stressed controls, hydrobromide) | SEFL (stress-enhanced fear learning) ([1]; given before the trauma) | GluA1: GAPDH optical density ratios in the BLA [2] | GluA1: GAPDH optical density ratios in the BLA ([2]; listed as metyrapone) | GluA2: GAPDH optical density ratios in the BLA (GluA2 levels) [3] | GluN1: GAPDH optical density ratios in the BLA (GluN1 levels) [4]
1 | Br.C[N+](C)(C)CCCCCNCC12CC3CC(CC(C3)C1)C2.[Br-] [IEM-1460, N,N,H,-Trimethyl-5-[(tricyclo[3.3.1.13,7]dec-1-ylmethyl)amino]-1-pentanaminiumbromide hydrobromide] | significantly reduces freezing in Context B; also recorded: attenuate SEFL | – | – | – | – | –
2 | CC(C)(C(=O)c1cccnc1)c1cccnc1 [Metyrapone] | – | effectively preventing SEFL | prevented GluA1 increases and conferred levels to that of unstressed controls | GluA1 protein levels in the BLA were significantly higher in stressed rats than in unstressed rats and metyrapone-treated rats | Neither stress nor metyrapone had an effect on GluA2 levels | Neither stress nor metyrapone had an effect on GluN1 levels
